From patent US9833497B2, “Human originated EGF domain proteins and use of the same” (CHENGDU SOURCEBIO LIMITED-LIABILITY COMPANY, priority 2013, dated 2017) come the findings set out here.

Holding throughout (type): cell-based
For one assay, the system named is Proteus mirabilis. The assay is described as follows: MIC against Gram-negative bacteria: Proteus mirabilis. The gist of the method:
(§1)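 Bacteria grown in LB at 37° C to McFarland 0.5, resuspended and seeded at 5×10^5 CFU/mL in 96-well plates. Purified human EGF-domain proteins two-fold serially diluted, triplicate wells; cultured at 37° C, shaking 175 rpm. MIC = lowest protein concentration with no growth.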

The next assay has as its system Proteus vulgaris. The assay can be described thus: MIC against Gram-negative bacteria: Proteus vulgaris. The gist of the method: as §1
The next assay concerns Enterobacter cloacae. The assay can be described thus: MIC against Gram-negative bacteria: Enterobacter cloacae. The method in brief:
as §1

The next assay relates to Serratia marcescens. The assay can be described thus: MIC against Gram-negative bacteria: Serratia marcescens. The method in brief:
as §1

Another assay deals with Citrobacter diversus. The assay can be described thus: MIC against Gram-negative bacteria: Citrobacter diversus. The method in brief:
as §1

The next assay concerns E. coli DH5α. The assay can be described thus: Antibacterial activity: MIC and growth curve against E. coli DH5α in 96-well plate. To be noted: minimal inhibitory concentration against E. coli DH5α; 96-well plate, 5×10^5 CFU/mL, 37° C., judged after 8 h. The gist of the method:
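Log-phase DH5α (OD600 about 0.5, 37° C, 185 rpm in LB) was pelleted, resuspended in fresh LB and seeded at 5×10^5 CFU/mL with recombinant protein at 50, 25 and 12.5 μg/mL (two-fold series), in triplicate. Plates were shaken at 175 rpm, 37° C, and OD600 was read every 30 min. MIC was the lowest concentration with no growth.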

A further assay concerns Aeromonas hydrophila. The assay can be described thus: MIC against Gram-negative bacteria: Aeromonas hydrophila. The gist of the method:
as §1

For a further assay, the system named is Pseudomonas aeruginosa. The assay is described as follows: MIC against Gram-negative bacteria: Pseudomonas aeruginosa. The method in brief: as §1
The next assay concerns E. coli BL21. The assay can be described thus: MIC against Gram-negative bacteria: E. coli BL21. The method in brief:
as §1

A further assay has as its system Klebsiella pneumonia. The assay is described as follows: MIC against Gram-negative bacteria: Klebsiella pneumonia. The gist of the method:
as §1

For another assay, the system named is Moraxella catarrhalis. The assay can be described thus: MIC against Gram-negative bacteria: Moraxella catarrhalis. The gist of the method:
as §1

[1] abbreviates: P. mirabilis, 10 h cultivation at 37° C.
Setting [2] is: P. vulgaris, 10 h cultivation at 37° C.
The mark [3] stands for this setting: E. cloacae, 10 h cultivation at 37° C.
The mark [4] stands for this setting: S. marcescens, 10 h cultivation at 37° C.
[5] abbreviates: C. diversus, 10 h cultivation at 37° C.
Setting [6] is: A. hydrophila, 10 h cultivation at 37° C.
Setting [7] is: P. aeruginosa, 10 h cultivation at 37° C.
The mark [8] stands for this setting: E. coli BL21, 10 h cultivation at 37° C.
[9] abbreviates: K. pneumonia, 10 h cultivation at 37° C.
[10] abbreviates: M. catarrhalis, 10 h cultivation at 37° C.
Setting [11] is: P. mirabilis, 10 h cultivation at 37° C., 5×10^5 CFU/mL.
The mark [12] stands for this setting: P. vulgaris, 10 h cultivation at 37° C., 5×10^5 CFU/mL.
Setting [13] is: E. cloacae, 10 h cultivation at 37° C., 5×10^5 CFU/mL.
The mark [14] stands for this setting: S. marcescens, 10 h cultivation at 37° C., 5×10^5 CFU/mL.
The mark [15] stands for this setting: C. diversus, 10 h cultivation at 37° C., 5×10^5 CFU/mL.
Where [16] appears, read: A. hydrophila, 10 h cultivation at 37° C., 5×10^5 CFU/mL.
Setting [17] is: P. aeruginosa, 10 h cultivation at 37° C., 5×10^5 CFU/mL.
[18] abbreviates: E. coli BL21, 10 h cultivation at 37° C., 5×10^5 CFU/mL.
The mark [19] stands for this setting: K. pneumonia, 10 h cultivation at 37° C., 5×10^5 CFU/mL.
Where [20] appears, read: M. catarrhalis, 10 h cultivation at 37° C., 5×10^5 CFU/mL.
[21] abbreviates: 10 h cultivation at 37° C., 5×10^5 CFU/mL, two-fold serial dilution.

With “PRT936 (VLAPCSPNPCENAAVCKESPNFESYTCLCAPGWQGQRCT; listed as Homo sapiens)”, the MIC in the assay with Proteus mirabilis (setting [1]) stood at 50 µg/mL; in the assay with Proteus vulgaris (setting [2]), 12.5 µg/mL; with Enterobacter cloacae (setting [3]) it was 12.5 µg/mL; against Serratia marcescens (setting [4]), 50 µg/mL; in the assay on Citrobacter diversus (setting [5]), 50 µg/mL; against E. coli DH5α, 25 µg/mL. In addition, the minimal inhibitory concentration (MIC) in the assay with Aeromonas hydrophila (setting [6]) came to 25 µg/mL; against Pseudomonas aeruginosa (setting [7]), 25 µg/mL; in the assay with E. coli BL21 (setting [8]) it was 12.5 µg/mL; against Klebsiella pneumonia (setting [9]), 50 µg/mL; in the assay on Moraxella catarrhalis (setting [10]), 12.5 µg/mL.

For the substance “PRT990 (LDDACVSNPCHEDAICDTNPVNGRAICTCPPGFTGGACD; listed as Homo sapiens)”, the minimal inhibitory concentration (MIC) in the assay with Proteus mirabilis (setting [1]) is 25 µg/mL; against Proteus vulgaris (setting [2]) it was 12.5 µg/mL; with Enterobacter cloacae (setting [3]), 50 µg/mL; against Serratia marcescens (setting [4]), 25 µg/mL; with Citrobacter diversus (setting [5]), 25 µg/mL; against E. coli DH5α, 12.5 µg/mL. The minimal inhibitory concentration (MIC) was determined as 12.5 µg/mL with Aeromonas hydrophila (setting [6]); 12.5 µg/mL with Pseudomonas aeruginosa (setting [7]); 25 µg/mL against E. coli BL21 (setting [8]); 12.5 µg/mL against Klebsiella pneumonia (setting [9]); 50 µg/mL against Moraxella catarrhalis (setting [10]).

For “PRT318 (DVDECEKNPCAGGECINNQGSYTCQCRAGYQSTLTRTECR; listed as Homo sapiens)”, the MIC was 12.5 µg/mL with Proteus mirabilis (setting [11]); 25 µg/mL against Proteus vulgaris (setting [12]); 12.5 µg/mL with Enterobacter cloacae (setting [13]); 50 µg/mL with Serratia marcescens (setting [14]); 12.5 µg/mL against Citrobacter diversus (setting [15]); 12.5 µg/mL in the assay on E. coli DH5α. In addition, the MIC with Aeromonas hydrophila (setting [16]) is 50 µg/mL; in the assay on Pseudomonas aeruginosa (setting [17]) it was 12.5 µg/mL; in the assay on E. coli BL21 (setting [18]), 12.5 µg/mL; with Klebsiella pneumonia (setting [19]) it was 50 µg/mL; with Moraxella catarrhalis (setting [20]), 50 µg/mL.

With “PRT1200 (DIDECSEGIIECHNHSRCVNLPGWYHCECRSGFHDDGTY; listed as Homo sapiens)”, the “MIC against P. mirabilis” value in the assay on Proteus mirabilis (Proteus mirabilis, 96-well plate, 5×10^5 CFU/mL, 37° C., 10 h) is 25 µg/mL. Moreover, in the assay with Proteus vulgaris (Proteus vulgaris, 96-well plate, 5×10^5 CFU/mL, 37° C., 10 h), the “MIC against P. vulgaris” value amounted to 12.5 µg/mL. Further, the “MIC against E. cloacae” value against Enterobacter cloacae (Enterobacter cloacae, 96-well plate, 5×10^5 CFU/mL, 37° C., 10 h) was found to be 25 µg/mL. Moreover, in the assay on Serratia marcescens (Serratia marcescens, 96-well plate, 5×10^5 CFU/mL, 37° C., 10 h), the “MIC against S. marcescens” value is 50 µg/mL. In addition, the “MIC against C. diversus” value in the assay on Citrobacter diversus (Citrobacter diversus, 96-well plate, 5×10^5 CFU/mL, 37° C., 10 h) worked out at 12.5 µg/mL. The MIC against E. coli DH5α turned out to be 12.5 µg/mL. For the same substance, in the assay with Aeromonas hydrophila (Aeromonas hydrophila, 96-well plate, 5×10^5 CFU/mL, 37° C., 10 h), the “MIC against A. hydrophila” value turned out to be 25 µg/mL. Besides, the “MIC against P. aeruginosa” value against Pseudomonas aeruginosa (Pseudomonas aeruginosa, 96-well plate, 5×10^5 CFU/mL, 37° C., 10 h) was determined as 12.5 µg/mL. For the same substance, in the assay with E. coli BL21 (E. coli BL21, 96-well plate, 5×10^5 CFU/mL, 37° C., 10 h), the “MIC against E. coli BL21” value is 12.5 µg/mL. Besides, the “MIC against K. pneumonia” value in the assay on Klebsiella pneumonia (Klebsiella pneumonia, 96-well plate, 5×10^5 CFU/mL, 37° C., 10 h) is 12.5 µg/mL. The “MIC against M. catarrhalis” value in the assay on Moraxella catarrhalis (Moraxella catarrhalis, 96-well plate, 5×10^5 CFU/mL, 37° C., 10 h) was determined as 50 µg/mL.

For “PRT789 (YGNDCHQRCQCQNGATCDHVTGECRCPPGYTGAFCE; listed as Homo sapiens)”, the “MIC (μg/mL) P. mirabilis” value in the assay on Proteus mirabilis (setting [11]) was 50 µg/mL. For the same substance, in the assay on Proteus vulgaris (setting [12]), the “MIC (μg/mL) P. vulgaris” value was found to be 25 µg/mL. In addition, the “MIC (μg/mL) E. cloacae” value in the assay with Enterobacter cloacae (setting [13]) came out at 50 µg/mL. The “MIC (μg/mL) S. marcescens” value against Serratia marcescens (setting [14]) turned out to be 12.5 µg/mL. In the assay on Citrobacter diversus (setting [15]), the “MIC (μg/mL) C. diversus” value was 25 µg/mL. This substance gave a minimal inhibitory concentration (MIC) with E. coli DH5α of 25 µg/mL. The “MIC (μg/mL) A. hydrophila” value with Aeromonas hydrophila (setting [16]) amounted to 12.5 µg/mL. The “MIC (μg/mL) P. aeruginosa” value with Pseudomonas aeruginosa (setting [17]) was determined as 25 µg/mL. The “MIC (μg/mL) E. coli BL21” value in the assay on E. coli BL21 (setting [18]) was found to be 50 µg/mL. Also, the “MIC (μg/mL) K. pneumonia” value in the assay on Klebsiella pneumonia (setting [19]) stood at 12.5 µg/mL. For the same substance, in the assay with Moraxella catarrhalis (setting [20]), the “MIC (μg/mL) M. catarrhalis” value turned out to be 25 µg/mL.

Turning to “PRT1130 (DDCSSHCDLAHGCCAPDGSCRCDPGWEGLHCE; listed as Homo sapiens)”, the “MIC P. mirabilis” value against Proteus mirabilis (setting [21]) is 25 µg/mL. Also, the “MIC P. vulgaris” value in the assay with Proteus vulgaris (setting [21]) amounted to 12.5 µg/mL. Besides, in the assay with Enterobacter cloacae (setting [21]), the “MIC E. cloacae” value stood at 50 µg/mL. Also, the “MIC S. marcescens” value in the assay on Serratia marcescens (setting [21]) is 25 µg/mL. The “MIC C. diversus” value in the assay with Citrobacter diversus (setting [21]) worked out at 25 µg/mL. This substance also returned an MIC against E. coli DH5α of 12.5 µg/mL. In the assay with Aeromonas hydrophila (setting [21]), the “MIC A. hydrophila” value came to 12.5 µg/mL. In addition, the “MIC P. aeruginosa” value against Pseudomonas aeruginosa (setting [21]) was 50 µg/mL. Further, the “MIC E. coli BL21” value against E. coli BL21 (setting [21]) was determined as 12.5 µg/mL. In the assay with Klebsiella pneumonia (setting [21]), the “MIC K. pneumonia” value was found to be 12.5 µg/mL. Besides, the “MIC M. catarrhalis” value in the assay on Moraxella catarrhalis (setting [21]) is 50 µg/mL.
